Patent publication US11370897B2, “Curable composition comprising UV stabilizer” (Momentive Performance Materials Inc., priority 2019, dated 2022)
Where two headings read alike, the source gives them in different places.

Test: Solubility tests of resorcinol products in alcoholic solvents
Format: physicochemical
Settings: organic solvent or mixture, thermodynamic from solid, 20° C., Table 11, by product ratio DBMR/BTMR/DTMR
Experimental: To determine the solubility of resorcinol products, the following procedure was used:
0.50 g of pre-dried product (45 min @75° C. in oven) was combined with 5.00 ml of solvent (4.03 g of 2-butanol or 4.60 g of 1-methoxy-2-propanol). The mixture was handled in an ultrasonic bath for 1 min and stored afterwards under constant climate (20° C.) for 24 h.
The overlying solution was transfused carefully with a pipette. The solid content of this solution was measured thermogravimetrically with a halogen moisture analyzer (Mettler Toledo). This test procedure was repeated three times.

[1] = 1-methoxy-2-propanol, read-out: Solubility in 1-Methoxy-2-propanol
[2] = 2-butanol, read-out: Solubility in 2-butanol

Row | solubility at 24 h [1] | solubility at 24 h [2] | Structure (SMILES)
1 | 4000 µg/mL | < 1000 µg/mL | Cc1c(O)c(C(=O)c2ccccc2)cc(C(=O)c2ccccc2)c1O [DBMR, dibenzoylacyl-2-methyl resorcinol]
2 | 15000 µg/mL | 1000 µg/mL | Cc1cccc(C(=O)c2cc(C(=O)c3cccc(C)c3)c(O)c(C)c2O)c1 [DTMR, ditoluoylacyl-2-methyl resorcinol]
